According to US8119661B2, “Piperidine derivatives and their use as muscarinic receptor modulators” (AstraZeneca AB, priority 2007, dated 2012):

What was measured:
[1] = test system: SNL rats (heat hyperalgesia); assay: Rat SNL heat hyperalgesia assay; format: in vivo; settings: sc, male Sprague Dawley SNL rats, paw withdrawal latency, morphine s.c. 30 min before testing, example 2 per os 60 min before testing, combination ratio example 2:morphine 1:1.56
Procedure: Rats undergo spinal nerve ligation surgery as described in Kim and Chung (1992) (reference 1). Briefly, rats are anesthetized with isoflurane, the left L5 and L6 are isolated and tightly ligated with 4-0 silk thread. The wound is closed by suturing and applying tissue adhesive. Compound testing is performed at day 9 to day 36 post-surgery.
For behavioral testing, the animals are acclimatized to the test room environment for a minimum of 30 min. In order to assess the degree of hyperalgesia, the animals are placed on a glass surface (maintained at 30° C.), and a heat-source is focused onto the plantar surface of the left paw. The time from the initiation of the heat until the animal withdraws the paw is recorded. Each animal is tested twice (with an interval of 10 min between the two tests). A decrease in Paw Withdrawal Latency (PWL, average of the two tests) relative to naïve animals indicates a hyperalgesic state. The rats with a PWL of at least 2 seconds less than average PWL of Naïve group are selected for compound testing. […]
In order to assess the degree of heat hyperalgesia, the rats were individually placed in Plexiglas boxes on the glass surface (maintained at 30° C.) of a paw thermal stimulator system (Model 390, series 8, IITC Life Science, Woodland Hills, USA) and allowed to acclimate for 30 min. […] Paw withdrawal latencies (PWLs) were calculated as the mean of the two values.

[2] = target: T1, hM1 (human Muscarinic receptor subtype 1) (Homo sapiens, UniProt P11229); assay: Human M1 calcium mobilization FLIPR assay; format: cell-based; settings: CHO cells expressing hM1, intracellular Ca2+ release
T1 construct: expressed in transfected cells; host or cells: CHO cells (Chinese hamster ovary cells, ATCC)
T1 sequence (P11229 1-460): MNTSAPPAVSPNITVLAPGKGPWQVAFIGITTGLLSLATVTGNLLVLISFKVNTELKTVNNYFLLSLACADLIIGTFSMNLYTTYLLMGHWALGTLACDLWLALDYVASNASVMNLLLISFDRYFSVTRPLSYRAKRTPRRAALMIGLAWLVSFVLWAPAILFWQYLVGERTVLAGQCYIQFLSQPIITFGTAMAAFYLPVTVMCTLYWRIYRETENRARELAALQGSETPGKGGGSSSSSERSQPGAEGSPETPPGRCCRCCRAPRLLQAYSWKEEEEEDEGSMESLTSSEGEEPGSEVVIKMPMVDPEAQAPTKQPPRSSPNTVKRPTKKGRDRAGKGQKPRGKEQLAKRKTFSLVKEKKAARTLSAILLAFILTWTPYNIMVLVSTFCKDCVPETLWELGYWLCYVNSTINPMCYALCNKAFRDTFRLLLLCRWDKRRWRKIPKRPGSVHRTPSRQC
Procedure: The compound activity in the present invention (EC50 or IC50) is measured using a 384 plate-based imaging assay that monitors drug induced intracellular Ca^2+ release in whole cells. Activation of hM1 (human Muscarinic receptor subtype 1, gene bank access NM_000738), rM1 (rat Muscarinic receptor subtype 1, gene bank access NM_080773), hM3 (human Muscarinic receptor subtype 3, gene bank access NM_000740NM_000740) and hM5 (human Muscarinic receptor subtype 5, gene bank access NM_0121258), receptors expressed in CHO cells (Chinese hamster ovary cells, ATCC) is quantified in a Molecular Devices FLIPR II™ instrument as an increase in fluorescent signal. Inhibition of hM3 and hM5 by compounds is determined by the decrease in fluorescent signal in response to 2 nM acetylcholine activation.
Prior to experiment, the cell culture medium is removed from the plates by inversion. […] Plates are incubated at 37° C. for 60 minutes prior to start the experiment. The incubation is terminated by washing the cells four times in assay buffer, leaving a residual 25 μl buffer per well. Cell plates are then transferred to the FLIPR, ready for compound additions.
The day of experiment, acetylcholine and compounds are diluted in assay buffer in three-fold concentration range (10 points serial dilution) for addition by FLIPR instrument. For all calcium assays, a baseline reading is taken for 10 seconds followed by the addition of 12.5 μl of compounds, resulting in a total well volume of 37.5 μl. Data is collected every second for 60 pictures and then every 6 seconds for 20 pictures prior to the addition of agonist. For hM3 and hM5, before agonist addition, a second baseline reading is taken for 10 seconds followed by the addition of 12.5 μl of agonist or buffer, producing a final volume of 50 μl. After agonist stimulation, the FLIPR continues to collect data every second for 60 pictures and then every 6 seconds for 20 pictures. The fluorescence emission is read using filter 1 (emission 510-570 nm) by the FLIPR on board CCD camera.
Calcium mobilization output data are calculated as the maximal relative fluorescence unit (RFU) minus the minimal value for both compound and agonist reading frame (except for hM1 and rM1 using only the maximal RFU). Data are analyzed using sigmoidal fits of a non-linear curve-fitting program (XLfit version 4.2.2 Excel add-in version 4.2.2 build 18 math 1Q version 2.1.2 build 18). All pEC50 and pIC50 values are reported as arithmetic means±standard error of mean of ‘n’ independent experiments.

CN1CC[C@]23c4c5ccc(O)c4O[C@H]2[C@@H](O)C=C[C@H]3[C@H]1C5 [Morphine, reference compound]
ED50 [1]: 3.8 µmol/kg

CC#CCOC(=O)N1CCC(C)(N2CCC(N3C(=O)N[C@H]4CCCC[C@@H]43)CC2)C1 (single isomer, unassigned) [Example 20]
EC50 [2]: 257 nM
